Values after ≈ are worked out from the molar mass of the structure shown.
Assays:
[1] = molecular target: cGMP-specific 3',5'-cyclic phosphodiesterase (Homo sapiens, UniProt O76074); test: Inhibition of PDE5 (unknown origin)
Histone deacetylase 1 = Histone deacetylase 1 (Homo sapiens, UniProt Q13547); test: Inhibition of HDAC1 (unknown origin)
Histone deacetylase 2 = Histone deacetylase 2 (Homo sapiens, UniProt Q92769); test: Inhibition of HDAC2 (unknown origin)
[2] = molecular target: T1, Protein deacetylase HDAC6 (Homo sapiens, UniProt Q9UBN7); test: Inhibition of HDAC6 (unknown origin)
T1 sequence (Q9UBN7 whole entry): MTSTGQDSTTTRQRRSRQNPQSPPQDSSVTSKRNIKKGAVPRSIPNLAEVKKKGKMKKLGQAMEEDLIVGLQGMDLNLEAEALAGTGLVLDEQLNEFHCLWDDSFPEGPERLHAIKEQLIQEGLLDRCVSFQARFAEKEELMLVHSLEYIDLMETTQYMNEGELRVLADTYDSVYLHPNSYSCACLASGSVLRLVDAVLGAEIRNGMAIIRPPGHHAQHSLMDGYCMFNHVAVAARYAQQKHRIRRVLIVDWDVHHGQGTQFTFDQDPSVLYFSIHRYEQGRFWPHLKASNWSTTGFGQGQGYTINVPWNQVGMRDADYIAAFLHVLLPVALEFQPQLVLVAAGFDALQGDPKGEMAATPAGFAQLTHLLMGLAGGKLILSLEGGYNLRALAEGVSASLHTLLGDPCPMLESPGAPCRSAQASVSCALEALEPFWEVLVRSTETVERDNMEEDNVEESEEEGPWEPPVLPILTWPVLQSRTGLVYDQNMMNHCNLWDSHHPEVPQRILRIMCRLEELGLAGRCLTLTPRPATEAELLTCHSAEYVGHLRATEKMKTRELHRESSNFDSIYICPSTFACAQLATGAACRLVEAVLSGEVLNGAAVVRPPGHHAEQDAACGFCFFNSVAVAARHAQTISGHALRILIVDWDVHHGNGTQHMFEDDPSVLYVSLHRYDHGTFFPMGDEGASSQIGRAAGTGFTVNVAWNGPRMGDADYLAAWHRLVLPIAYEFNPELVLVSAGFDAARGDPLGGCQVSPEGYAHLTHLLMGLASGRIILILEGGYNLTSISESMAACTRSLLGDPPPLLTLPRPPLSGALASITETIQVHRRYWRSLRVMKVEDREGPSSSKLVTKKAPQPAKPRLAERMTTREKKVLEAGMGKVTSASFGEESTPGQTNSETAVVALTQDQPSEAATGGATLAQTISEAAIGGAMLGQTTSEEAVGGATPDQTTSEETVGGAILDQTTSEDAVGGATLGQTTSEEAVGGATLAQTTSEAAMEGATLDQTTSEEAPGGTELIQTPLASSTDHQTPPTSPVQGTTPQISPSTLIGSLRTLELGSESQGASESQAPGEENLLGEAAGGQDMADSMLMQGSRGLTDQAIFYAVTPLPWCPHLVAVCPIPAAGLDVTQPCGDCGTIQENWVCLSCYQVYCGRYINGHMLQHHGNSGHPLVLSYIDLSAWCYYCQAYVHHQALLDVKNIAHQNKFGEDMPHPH

[3] = Aqueous solubility of compound; type: physicochemical; conditions: water
Acetylcholinesterase = Acetylcholinesterase (Homo sapiens, UniProt P22303); test: Inhibition of AChE (unknown origin)
Sequence of Acetylcholinesterase (P22303 whole entry): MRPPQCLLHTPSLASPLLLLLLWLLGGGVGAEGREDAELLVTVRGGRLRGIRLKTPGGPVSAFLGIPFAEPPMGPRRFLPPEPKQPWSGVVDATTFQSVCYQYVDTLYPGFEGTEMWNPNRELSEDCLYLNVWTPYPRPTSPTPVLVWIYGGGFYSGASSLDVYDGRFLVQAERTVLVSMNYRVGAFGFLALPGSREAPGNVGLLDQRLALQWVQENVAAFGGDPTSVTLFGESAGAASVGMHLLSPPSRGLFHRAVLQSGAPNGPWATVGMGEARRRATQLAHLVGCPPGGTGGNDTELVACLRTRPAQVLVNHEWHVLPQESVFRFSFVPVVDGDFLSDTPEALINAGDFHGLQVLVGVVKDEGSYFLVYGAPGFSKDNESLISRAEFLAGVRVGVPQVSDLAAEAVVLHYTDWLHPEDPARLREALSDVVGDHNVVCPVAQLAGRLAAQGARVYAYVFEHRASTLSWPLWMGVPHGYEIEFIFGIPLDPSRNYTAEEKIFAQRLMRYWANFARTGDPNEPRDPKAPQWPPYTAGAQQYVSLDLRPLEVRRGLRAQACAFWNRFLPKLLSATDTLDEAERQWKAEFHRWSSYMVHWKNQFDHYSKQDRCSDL

[4] = molecular target: 5-hydroxytryptamine receptor 2A (Homo sapiens, UniProt P28223); test: Displacement of [3H]-LSD from human 5-HT2A expressed in human HEK cells assessed as inhibition constant by FLIPR assay; type: cell-based
Sequence of 5-hydroxytryptamine receptor 2A (P28223 whole entry): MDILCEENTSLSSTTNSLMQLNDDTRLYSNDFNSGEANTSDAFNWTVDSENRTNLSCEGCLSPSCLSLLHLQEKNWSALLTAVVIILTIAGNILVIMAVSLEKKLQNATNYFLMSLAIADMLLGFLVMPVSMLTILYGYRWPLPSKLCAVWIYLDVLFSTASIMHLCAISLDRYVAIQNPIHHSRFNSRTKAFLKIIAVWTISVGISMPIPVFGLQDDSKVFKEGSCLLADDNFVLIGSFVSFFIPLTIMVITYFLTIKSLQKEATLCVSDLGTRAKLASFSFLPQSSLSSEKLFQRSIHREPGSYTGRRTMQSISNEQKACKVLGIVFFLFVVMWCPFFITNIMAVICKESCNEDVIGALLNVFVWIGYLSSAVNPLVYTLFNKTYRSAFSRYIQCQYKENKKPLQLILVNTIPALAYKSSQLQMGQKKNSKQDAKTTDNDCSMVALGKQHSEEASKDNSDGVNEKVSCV

[5] = molecular target: 5-hydroxytryptamine receptor 1A (Homo sapiens, UniProt P08908); test: Displacement of […] from human 5-HT1A expressed in human HEK cells assessed as inhibition constant by FLIPR assay; type: cell-based
Sequence of 5-hydroxytryptamine receptor 1A (P08908 whole entry): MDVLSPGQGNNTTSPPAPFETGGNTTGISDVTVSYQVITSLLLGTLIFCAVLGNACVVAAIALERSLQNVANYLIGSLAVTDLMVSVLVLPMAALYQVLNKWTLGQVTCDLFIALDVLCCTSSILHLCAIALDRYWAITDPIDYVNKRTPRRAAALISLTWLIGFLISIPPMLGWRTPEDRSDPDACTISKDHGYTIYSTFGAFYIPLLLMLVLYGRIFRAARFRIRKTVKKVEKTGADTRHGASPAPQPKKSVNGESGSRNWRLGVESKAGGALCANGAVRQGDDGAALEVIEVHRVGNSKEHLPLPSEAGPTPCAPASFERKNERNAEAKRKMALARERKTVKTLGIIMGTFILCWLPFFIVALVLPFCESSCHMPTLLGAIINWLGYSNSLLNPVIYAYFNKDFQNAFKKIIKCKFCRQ

[6] = molecular target: T2, 5-hydroxytryptamine receptor 3A (Homo sapiens, UniProt P46098); test: Binding affinity to 5-HT3R (unknown origin) assessed as inhibition constant
T2 sequence (P46098 whole entry): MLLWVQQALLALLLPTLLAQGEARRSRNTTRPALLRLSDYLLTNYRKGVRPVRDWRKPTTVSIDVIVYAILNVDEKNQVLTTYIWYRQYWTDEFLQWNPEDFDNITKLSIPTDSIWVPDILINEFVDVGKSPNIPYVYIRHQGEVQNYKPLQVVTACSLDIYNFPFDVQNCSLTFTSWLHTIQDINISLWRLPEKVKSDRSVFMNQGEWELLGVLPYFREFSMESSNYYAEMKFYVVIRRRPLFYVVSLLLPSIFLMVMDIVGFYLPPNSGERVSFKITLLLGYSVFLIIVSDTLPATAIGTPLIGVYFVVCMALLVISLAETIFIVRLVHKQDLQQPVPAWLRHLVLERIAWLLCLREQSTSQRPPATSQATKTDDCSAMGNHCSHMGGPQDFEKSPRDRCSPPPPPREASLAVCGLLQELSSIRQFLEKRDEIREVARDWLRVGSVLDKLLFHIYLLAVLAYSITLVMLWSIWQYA

[7] = molecular target: Amyloid-beta precursor protein (Homo sapiens) (UniProt P05067); test: Inhibition of amyloid beta (unknown origin) aggregation relative to control; conditions: concentration not given here
Sequence of Amyloid-beta precursor protein (Homo sapiens) (P05067 whole entry): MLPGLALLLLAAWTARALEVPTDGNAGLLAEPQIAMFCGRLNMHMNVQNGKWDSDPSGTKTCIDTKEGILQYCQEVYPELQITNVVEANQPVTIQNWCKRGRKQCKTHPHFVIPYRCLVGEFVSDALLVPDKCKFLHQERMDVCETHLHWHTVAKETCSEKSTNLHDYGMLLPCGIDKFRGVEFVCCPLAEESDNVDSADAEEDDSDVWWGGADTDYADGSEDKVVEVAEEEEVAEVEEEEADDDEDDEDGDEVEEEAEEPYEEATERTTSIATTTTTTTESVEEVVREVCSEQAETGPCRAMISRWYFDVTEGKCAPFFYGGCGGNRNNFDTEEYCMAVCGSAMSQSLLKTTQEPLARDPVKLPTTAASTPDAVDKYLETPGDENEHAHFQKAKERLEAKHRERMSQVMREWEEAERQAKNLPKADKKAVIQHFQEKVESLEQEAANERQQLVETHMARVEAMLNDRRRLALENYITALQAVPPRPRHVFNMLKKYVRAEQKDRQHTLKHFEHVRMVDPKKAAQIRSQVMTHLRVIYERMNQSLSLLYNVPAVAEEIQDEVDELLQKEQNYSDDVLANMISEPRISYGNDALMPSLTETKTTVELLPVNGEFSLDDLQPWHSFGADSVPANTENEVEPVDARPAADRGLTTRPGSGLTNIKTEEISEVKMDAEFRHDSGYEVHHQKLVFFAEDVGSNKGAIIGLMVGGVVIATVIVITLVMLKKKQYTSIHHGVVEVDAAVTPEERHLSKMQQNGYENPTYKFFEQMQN

Beta-secretase 1 = Beta-secretase 1 (Homo sapiens, UniProt P56817); test: Inhibition of BACE1 (unknown origin) expressed in HEK293 cells by FRET assay; type: cell-based
Sequence of Beta-secretase 1 (P56817 whole entry): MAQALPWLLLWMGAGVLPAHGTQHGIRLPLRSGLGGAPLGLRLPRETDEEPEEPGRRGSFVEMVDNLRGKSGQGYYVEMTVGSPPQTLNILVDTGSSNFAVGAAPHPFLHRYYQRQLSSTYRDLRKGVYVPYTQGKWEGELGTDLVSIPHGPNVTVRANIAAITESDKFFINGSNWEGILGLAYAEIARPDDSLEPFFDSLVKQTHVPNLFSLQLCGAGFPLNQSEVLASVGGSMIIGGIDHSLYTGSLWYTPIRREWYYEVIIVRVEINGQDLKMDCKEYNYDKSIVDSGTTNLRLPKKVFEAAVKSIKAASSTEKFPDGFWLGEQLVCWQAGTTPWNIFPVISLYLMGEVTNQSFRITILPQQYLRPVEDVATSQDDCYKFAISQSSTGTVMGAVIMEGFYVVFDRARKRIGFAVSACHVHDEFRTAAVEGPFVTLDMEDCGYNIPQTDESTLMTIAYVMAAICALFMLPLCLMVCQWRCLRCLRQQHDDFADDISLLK

[8] = molecular target: 5-hydroxytryptamine receptor 2A (Rattus norvegicus) (UniProt P14842); test: Displacement of [3H]-ketanserin from rat 5-HT2A expressed in mouse NIH/3T3 cells assessed as inhibition constant by Cheng-Prusoff equation analysis; type: cell-based
Sequence of 5-hydroxytryptamine receptor 2A (Rattus norvegicus) (P14842 whole entry): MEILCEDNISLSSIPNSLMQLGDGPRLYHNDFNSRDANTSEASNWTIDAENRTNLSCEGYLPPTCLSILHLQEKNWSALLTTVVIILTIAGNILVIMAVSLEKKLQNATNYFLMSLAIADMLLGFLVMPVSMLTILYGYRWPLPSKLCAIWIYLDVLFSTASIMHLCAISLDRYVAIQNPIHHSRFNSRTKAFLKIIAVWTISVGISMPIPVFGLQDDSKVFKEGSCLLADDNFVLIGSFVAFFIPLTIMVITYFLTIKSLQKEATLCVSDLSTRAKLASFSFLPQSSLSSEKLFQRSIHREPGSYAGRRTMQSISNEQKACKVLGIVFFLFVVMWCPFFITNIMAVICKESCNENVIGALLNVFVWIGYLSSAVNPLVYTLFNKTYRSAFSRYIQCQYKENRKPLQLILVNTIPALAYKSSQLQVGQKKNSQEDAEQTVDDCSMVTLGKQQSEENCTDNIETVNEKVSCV

Cholinesterase = Cholinesterase (Homo sapiens, UniProt P06276); test: Inhibition of BuChE (unknown origin) assessed as inhibition of A-beta aggregation at 100 uM relative to control
Sequence of Cholinesterase (P06276 whole entry): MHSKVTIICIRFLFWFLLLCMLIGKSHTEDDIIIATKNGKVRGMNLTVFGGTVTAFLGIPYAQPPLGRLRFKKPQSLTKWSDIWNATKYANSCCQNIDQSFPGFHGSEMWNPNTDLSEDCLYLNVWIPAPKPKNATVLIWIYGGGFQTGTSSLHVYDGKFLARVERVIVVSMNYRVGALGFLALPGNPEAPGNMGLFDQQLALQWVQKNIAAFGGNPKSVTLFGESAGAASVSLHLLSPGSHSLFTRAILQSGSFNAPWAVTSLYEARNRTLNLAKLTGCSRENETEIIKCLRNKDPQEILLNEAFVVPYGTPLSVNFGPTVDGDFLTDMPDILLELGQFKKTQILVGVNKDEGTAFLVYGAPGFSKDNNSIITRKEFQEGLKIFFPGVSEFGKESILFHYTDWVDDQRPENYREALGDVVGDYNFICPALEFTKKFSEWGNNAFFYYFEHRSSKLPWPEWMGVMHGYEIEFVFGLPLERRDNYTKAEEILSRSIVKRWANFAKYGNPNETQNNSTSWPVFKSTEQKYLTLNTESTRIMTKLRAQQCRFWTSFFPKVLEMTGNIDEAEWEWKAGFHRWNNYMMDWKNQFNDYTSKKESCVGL

Sequence of Histone deacetylase 1 (Q13547 whole entry): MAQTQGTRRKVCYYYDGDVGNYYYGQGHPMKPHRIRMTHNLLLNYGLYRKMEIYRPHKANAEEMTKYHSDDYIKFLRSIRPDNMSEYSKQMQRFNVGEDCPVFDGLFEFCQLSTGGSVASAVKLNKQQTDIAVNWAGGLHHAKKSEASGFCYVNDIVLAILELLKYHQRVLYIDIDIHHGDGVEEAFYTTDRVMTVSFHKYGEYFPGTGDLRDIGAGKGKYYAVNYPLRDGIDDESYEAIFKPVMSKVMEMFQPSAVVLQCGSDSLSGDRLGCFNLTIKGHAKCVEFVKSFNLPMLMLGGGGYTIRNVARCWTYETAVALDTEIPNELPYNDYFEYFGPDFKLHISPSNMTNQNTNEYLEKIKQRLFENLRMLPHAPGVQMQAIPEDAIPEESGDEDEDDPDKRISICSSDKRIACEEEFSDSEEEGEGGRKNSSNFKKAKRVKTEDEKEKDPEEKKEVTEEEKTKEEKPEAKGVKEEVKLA
Sequence of Histone deacetylase 2 (Q92769 whole entry): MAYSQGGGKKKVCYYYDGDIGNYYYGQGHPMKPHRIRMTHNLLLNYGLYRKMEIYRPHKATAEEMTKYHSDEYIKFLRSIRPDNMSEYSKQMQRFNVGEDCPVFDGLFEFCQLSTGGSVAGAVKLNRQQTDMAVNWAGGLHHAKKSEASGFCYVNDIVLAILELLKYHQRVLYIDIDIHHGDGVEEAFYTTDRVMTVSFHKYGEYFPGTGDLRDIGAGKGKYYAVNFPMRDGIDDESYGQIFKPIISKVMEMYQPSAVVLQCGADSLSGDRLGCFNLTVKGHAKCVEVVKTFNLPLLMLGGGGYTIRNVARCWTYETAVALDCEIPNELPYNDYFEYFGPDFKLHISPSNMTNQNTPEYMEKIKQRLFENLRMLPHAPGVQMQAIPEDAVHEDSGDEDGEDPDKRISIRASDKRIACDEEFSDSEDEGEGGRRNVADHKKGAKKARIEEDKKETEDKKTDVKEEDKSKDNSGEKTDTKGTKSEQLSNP

Structure (SMILES): O=C(/C=C/c1ccc(N2CC(=O)N3C(Cc4c([nH]c5ccccc45)C3c3ccc4c(c3)OCO4)C2=O)cc1)NO (stereo not drawn)
- IC50 [1]: 120 nM
- IC50 (Histone deacetylase 1): > 2500 nM
- IC50 (Histone deacetylase 2): > 2500 nM
- IC50 [2]: > 2500 nM

Structure (SMILES): COc1ccc([C@@H]2c3[nH]c4ccccc4c3C[C@H]3C(=O)N(CCC4CCN(Cc5ccccc5)CC4)CC(=O)N23)cc1
- IC50 [1]: 3200 nM
- solubility [3]: 420 µg/mL (≈ 746 µM)
- IC50 (Acetylcholinesterase): 15 nM

Structure (SMILES): CC1=NCCc2c1[nH]c1ccccc21
- Ki [4]: 990 nM
- Ki [5]: 1700 nM
- Ki [6]: > 10000 nM

Structure (SMILES): O=C(CCCN1CCC(N2CC(=O)N3C(Cc4c([nH]c5ccccc45)C3c3ccc4c(c3)OCO4)C2=O)CC1)NO (stereo not drawn)
- IC50 [1]: 140 nM
- IC50 (Histone deacetylase 1): > 2500 nM
- IC50 (Histone deacetylase 2): > 2500 nM
- IC50 [2]: > 2500 nM

Structure (SMILES): O=C(/C=C/c1ccc(O)c(O)c1)NCc1cn(C[C@@H]2Cc3c([nH]c4ccccc34)CN2)nn1
- inhibition [7]: 30%
- IC50 (Beta-secretase 1): > 50000 nM

Structure (SMILES): COc1cccc2[nH]c3c(c12)CCNC3
- K [8]: < 0.18 µM

Structure (SMILES): Cc1ccc2[nH]c3c4[n+](ccc3c2c1)-c1ccccc1C4=O
- inhibition (Cholinesterase): 38%

Reference: ChEMBL document CHEMBL5233266, “β-Carboline as a Privileged Scaffold for Multitarget Strategies in Alzheimer's Disease Therapy” (J Med Chem, 2021)
